Structures can show the parent of a compound that is named as a salt. Where two headings read alike, the source gives them in different places.
What was measured:
[1] = tested on: AR2 cells (HepG2-AR2); assay: Alamar Blue (resazurin) post hoc cell viability / cytotoxicity assay in AR2 cells; conditions: spid Viability, sheet antagonist_fits; for hill_tp (Hill model top): 0 where win_model is Constant
Description: For antagonist mode and cytotoxicity data, well-level normalized response (resp) was calculated as: resp=100 * RLU−bval/pval−bval where pval is the median RLU value of the MEC positive control wells (minimum four wells).

[2] = biological target: T1, human AR (Homo sapiens, UniProt P10275); assay: AR2 assay, agonist mode: ligand-dependent AR homodimerization (NanoBiT luciferase complementation) in stable HepG2-AR2 cells; format: cell-based;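 as to hill tp: Log2 fold change of luminescence over DMSO vehicle wells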;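 as to max med: Log2 fold change of luminescence over DMSO vehicle wells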
T1 sequence (P10275 1-920) 1: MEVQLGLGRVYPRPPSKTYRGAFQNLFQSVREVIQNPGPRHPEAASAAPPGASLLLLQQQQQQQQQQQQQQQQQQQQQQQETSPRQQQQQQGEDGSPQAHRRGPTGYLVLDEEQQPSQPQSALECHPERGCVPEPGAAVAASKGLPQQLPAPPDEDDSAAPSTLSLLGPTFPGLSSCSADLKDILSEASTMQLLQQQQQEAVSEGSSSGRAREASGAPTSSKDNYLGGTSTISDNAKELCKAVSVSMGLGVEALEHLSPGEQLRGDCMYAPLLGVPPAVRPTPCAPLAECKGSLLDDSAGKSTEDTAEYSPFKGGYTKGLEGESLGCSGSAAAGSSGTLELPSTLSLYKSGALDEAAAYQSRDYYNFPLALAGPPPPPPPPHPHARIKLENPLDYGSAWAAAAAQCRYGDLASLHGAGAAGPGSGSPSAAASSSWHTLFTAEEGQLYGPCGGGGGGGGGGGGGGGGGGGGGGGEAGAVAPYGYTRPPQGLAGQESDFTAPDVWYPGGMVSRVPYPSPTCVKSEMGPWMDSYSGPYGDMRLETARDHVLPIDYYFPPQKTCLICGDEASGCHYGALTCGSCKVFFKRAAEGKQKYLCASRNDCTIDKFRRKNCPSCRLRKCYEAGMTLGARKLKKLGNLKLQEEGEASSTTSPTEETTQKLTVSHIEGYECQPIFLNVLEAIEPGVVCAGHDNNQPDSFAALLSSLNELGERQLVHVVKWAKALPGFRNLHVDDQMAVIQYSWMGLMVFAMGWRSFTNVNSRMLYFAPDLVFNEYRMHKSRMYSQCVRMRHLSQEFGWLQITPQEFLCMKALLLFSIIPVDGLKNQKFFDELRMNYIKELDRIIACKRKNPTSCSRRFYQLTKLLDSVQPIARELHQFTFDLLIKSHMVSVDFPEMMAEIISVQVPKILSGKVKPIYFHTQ
T1 sequence (P10275 1-920) 2: T1 sequence (P10275 1-920) 1

[3] = biological target: T1, human AR; assay: AR2 assay, antagonist mode: disruption of R1881 (10 nM)-induced AR homodimerization in HepG2-AR2 cells; format: cell-based
[4] = biological target: T1, human AR; assay: cell-based; parameters: species or system AR2 cells (HepG2-AR2); NanoLuc complementation AR homodimerization, antagonist mode, loss of agonist-induced luminescence, AC50 by Hill fit; conditions: hill_ga, antagonist mode, 10 nM agonist stimulus, 18 h, no CYP expressed
[5] = tested on: full-length human AR and the receptor interacting domain (RID) of SRC1; parameters: method as in U.S. EPA, 2002b; conditions: cited from earlier work
[6] = tested on: AR; parameters: method as in Kleinstreuer et al., 2017; conditions: 2017, cited from earlier work; for Agonist reference: AR agonist reference class ref Kleinstreuer et al.; for Antagonist reference: AR antagonist reference class ref Kleinstreuer et al.
[7] = sheet agonist_fits, Hill model top (efficacy), 0 given where win_model is Constant
[8] = sheet agonist_fits, maximum median response
[9] = sheet agonist_fits, winning concentration-response model (Constant, Hill, Gain-Loss)
[10] = spid AR_antagonist, sheet antagonist_fits
[11] = spid AR_antagonist, sheet antagonist_fits, 0 where win_model is Constant
[12] = activity call, 8 h, single protocol detects agonists and antagonists, invitroDBv3.4 ref U.S. EPA, 2002b
[13] = activity call, 16 h, single protocol detects agonists and antagonists, invitroDBv3.4 ref U.S. EPA, 2002b

SMILES	max_med (maximum median response) [1]	hill_tp (Hill model top) [1]	hill_tp [2, 7]	max_med [2, 8]	win_model [2, 9]	max_med (maximum median response) [3, 10]	win_model (winning concentration-response model) [3, 10]	hill_gw (Hill model slope) [3, 11]	hill_tp (Hill model top) [3, 11]	Agonist reference [6]	Antagonist reference [6]	Agonist reference ([6]; Supplementary Table S1)	Antagonist reference ([6]; Supplementary Table S1)	other results
O=[N+]([O-])c1ccc(O)c([N+](=O)[O-])c1 [2,4-Dinitrophenol]	17.6561	19.403	0	0.06149	Constant	41.2653	Hill	1.229	60.4053	–	–	–	–	AC50 ([4]; spid=Bgal): 61.4 µM; AC50 ([4]; spid=No_RNA): 35.8 µM
C[C@]12CCC(=O)C=C1CC[C@@H]1[C@@H]2CC[C@]2(C)C(=O)CC[C@@H]12 [4-Androstene-3,17-dione]	19.1138	19.333	–	–	–	–	–	–	–	Moderate	Inactive	Moderate	–	OT 8 hr [5, 12]: 1; OT 16 hr [5, 13]: 1
C[C@]12C=CC3=C4CCC(=O)C=C4CC[C@H]3[C@@H]1CC[C@@H]2O [17beta-Trenbolone]	21.7453	17.3642	–	–	–	–	–	–	–	Strong	–	Strong	–	OT 8 hr [5]: 1; OT 16 hr [5]: 1; AR2 agonist [2]: 1; activity call in agonist mode [2]: tested active; hill_gw [2]: 0.7579; hill_tp [2]: 6.165; max_med [2]: 6.198; win_model [2]: Hill; hill_gw (Hill model slope) [3]: 6.214; hill_tp (Hill model top) [3]: 20.2687; max_med (maximum median response) [3]: 20.7317; win_model (winning concentration-response model) [3]: Gain-Loss
CC/C(=C(\c1ccc(O)cc1)c1ccc(OCCN(C)C)cc1)c1ccccc1 [Afimoxifene (4-Hydroxytamoxifen)]	99.7378	99.9149	0	0.04316	Constant	104.395	Hill	3.209	105.037	–	–	–	–	AC50 ([4]; spid=Bgal): 7.28 µM; AC50 ([4]; spid=No_RNA): 5.39 µM
CCCCOC(=O)c1ccccc1C(=O)OCc1ccccc1 [Butylbenzylphthalate]	15.4413	12.3573	–	–	–	–	–	–	–	–	–	Inactive	–	–
CCN(CC)CCOc1ccc(/C(=C(/Cl)c2ccccc2)c2ccccc2)cc1 [Enclomiphene hydrochloride]	99.6641	101.238	0	0.05981	Constant	104.097	Hill	2.002	106.442	–	–	–	–	–
COP(=S)(OC)Oc1ccc([N+](=O)[O-])c(C)c1 [Fenitrothion]	18.684	19.2014	–	–	–	–	–	–	–	–	Strong	–	Strong	–
CC(C)(C)NC(=O)[C@H]1CC[C@H]2[C@@H]3CC[C@H]4NC(=O)C=C[C@]4(C)[C@H]3CC[C@]12C [Finasteride]	14.3947	0	–	–	–	–	–	–	–	Inactive	–	–	–	–
CC(C)C(=O)Nc1ccc([N+](=O)[O-])c(C(F)(F)F)c1 [Flutamide]	35.756	43.7281	–	–	–	–	–	–	–	Inactive	Moderate	–	Moderate	–
CC(C)(O)C(=O)Nc1ccc([N+](=O)[O-])c(C(F)(F)F)c1 [Hydroxyflutamide]	16.5535	15.0961	5.723	5.832	Hill	26.302	Hill	8	19.7734	–	Strong	–	Strong	OT 8 hr [5, 12]: 1; OT 16 hr [5, 13]: 1; activity call in agonist mode ([2]; 128-chemical evaluation, 18 h, active = maximal median response >5*bmad): tested active; hill_gw ([2]; sheet agonist_fits, Hill model gain slope (Hill coefficient), 0 given where win_model is Constant): 0.8082; activity call in antagonist mode ([3]; 128-chemical evaluation, 18 h, active = maximal median response >3*bmad and AC50 at least 0.5 log units below cytotoxicity AC50): tested inactive; AR2 antagonist ([3]; activity call, antagonist mode, 18 h): 0; Emax ([3]; read-out: antagonist response / maximum efficacy (% inhibition)): > 90%
